Laboratory results from paper PMC4293695 (Bioorganic & medicinal chemistry letters, 2014).

Experiments:
[1] = cited from earlier work
[2] = target: PCP site of the NMDA receptor; assay type: binding; conditions: read-out: [3H]TCP Ki; [3H]TCP as radioligand; rat brain membrane suspensions; mean from two experiments

| SMILES | measured logD [1] | Ki [2] [nM] |
| --- | --- | --- |
| CN(C(=N)Nc1cccc2ccccc12)c1cccc(I)c1 [Ligand 1] | 2.19 | – |
| CN(C(=N)Nc1cccc2ccccc12)c1cccc(Cl)c1F [Ligand 34] | – | 701 |
